Assay results: publication PMC7119080 (Bioorganic & Medicinal Chemistry Letters, 2005)

Legend:
[1] = molecular target: Papain (Carica papaya, UniProt P00784); assay type: biochemical
[2] = molecular target: Chymotrypsin (Bos taurus, UniProt P00766); test: biochemical

Papain, sequence (P00784 134-345 limits assumed): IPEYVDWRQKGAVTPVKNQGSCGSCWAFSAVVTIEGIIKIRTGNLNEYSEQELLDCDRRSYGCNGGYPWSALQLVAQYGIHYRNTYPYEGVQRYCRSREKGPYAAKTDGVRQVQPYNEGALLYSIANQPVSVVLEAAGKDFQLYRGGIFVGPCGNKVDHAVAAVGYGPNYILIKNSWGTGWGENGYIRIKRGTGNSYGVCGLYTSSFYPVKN

Row | Compound | more potent inhibition for SARS CoV 3CL^pro than for papain [1] | IC50 [2] [µM]
1 | O=C1C(=O)N(Cc2cc3ccccc3s2)c2c(Br)cccc21 [Compound 4k] | 90–105 times | 10.4
2 | O=C1C(=O)N(Cc2cc3ccccc3s2)c2ccc(I)cc21 [Compound 4o] | 90–105 times | 
